Tests used:
Type in all cases: cell-based
Cryptococcus neoformans = experiment: Antifungal activity in vitro, resazurin growth inhibition: Cryptococcus neoformans (B66663)
Protocol: (§1) The standard susceptibility screen is performed in 96-well plates (U-bottom, Greiner Bio-One). Serial dilutions (2-fold or 4-fold) of 20 mM compound stock solutions are made in 100% DMSO, followed by an intermediate dilution step in water. These serial dilutions (10 μl) are then spotted onto test-plates that can be stored in the dark at 4° C. for a maximum period of 2 weeks. An adequate broad dose-range is included with 64 μM as the highest in-test concentration. The culture medium RPMI-1640 is supplemented with L-glutamine, 2% glucose and buffered with 3-(N-morpholino)-propanesulfonic acid (MOPS) at pH 7.0±0.1.
(§2) The different fungal species/isolates (Table 3a) are cryopreserved and 1/1000 diluted in medium just prior to use. A standard inoculum of 200 μl containing 10^3 colony-forming unit (cfu) is then added to each well. A positive control (100% growth=fungal culture without antifungal) and a negative control (0% growth ═RPMI-MOPS medium) are included on each plate. Optimal incubation time and temperature are dependent on the fungal species and vary from 24 h for yeasts (37° C.) to one week or more for dermatophytes (27° C.). Inhibition of fungal growth is measured after adding 10 μl of 0.005% (w/v) resazurin (Sigma Aldrich) to each well, based on the principle that living cells convert the non-fluorescent blue resazurin into the pink and fluorescent resorufin, allowing fluorimetric reading (λex 550 nm and λem 590 nm) after an additional incubation period (‘resa’ time mentioned in Table 3a).

Microsporum canis = experiment: Antifungal activity in vitro, resazurin growth inhibition: Microsporum canis (B68128)
Protocol: as §1, §2

[1] = test system: Trichophyton mentagrophytes; experiment: Antifungal activity in vitro, resazurin growth inhibition: Trichophyton mentagrophytes (B70554)
Protocol: as §1, §2

Trichophyton rubrum = experiment: Antifungal activity in vitro, resazurin growth inhibition: Trichophyton rubrum (B68183)
Protocol: as §1, §2

Candida parapsilosis = experiment: Antifungal activity in vitro, resazurin growth inhibition: Candida parapsilosis (B66126)
Protocol: as §1, §2

Sporothrix schenkii = experiment: Antifungal activity in vitro, resazurin growth inhibition: Sporothrix schenkii (B62482)
Protocol: as §1, §2

Aspergillus fumigatus = experiment: Antifungal activity in vitro, resazurin growth inhibition: Aspergillus fumigatus (B42928)
Protocol: as §1, §2

Compound	Inf. F: Cryptococcus neoformans B66663, pIC50 (Cryptococcus neoformans)	Inf. B: Microsporum canis B68128, pIC50 (Microsporum canis)	Inf. G: Trichophyton mentagrophytes B70554, pIC50 [1]	Inf. C: Trichophyton rubrum B68183, pIC50 (Trichophyton rubrum)	Inf. D: Candida parapsilosis B66126, pIC50 (Candida parapsilosis)	Inf. A: Sporothrix schenkii B62482, pIC50 (Sporothrix schenkii)	Inf. E: Aspergillus fumigatus B42928, pIC50 (Aspergillus fumigatus)
Cc1nc(Cl)cc2cc(C3=NCc4c(Cl)cccc4-n4cccc43)oc12 [Compound 160]	5.61	5.03	5.48	5.84	<4.49	<4.49	5.85
Cc1cccc2c1CNC(c1ccc(C(F)(F)F)nc1)c1cccn1-2.Cl (racemic) [Compound 18]	<4.19	5.05	4.62	5.52	<4.19	<4.19	<4.19
Fc1cc(F)c2c(c1)-n1cccc1C(c1cnc(Cl)c(Cl)c1)=NC2 [Compound 81]	<4.19	<4.19	<4.19	<4.19	4.19	5.65	5.58
Fc1cccc2c1CN=C(c1ccc3occ(Cl)c3c1)c1cccn1-2 [Compound 153]	5.16	<4.19	<4.19	<4.19	5.00	<4.19	<4.19
Cc1ccc2cc(C3=NCc4c(Cl)cccc4-n4cccc43)ccc2n1 [Compound 112]	5.07	5.18	<4.19	6.02	<4.19	<4.19	<4.19
Cl.c1ccc2c(c1)CNC(c1cc3ccccc3o1)c1cccn1-2 (racemic) [Compound 29]	4.80	5.30	5.30	5.70	<4.19	<4.19	<4.19
FC(F)(F)c1cc(C2=NCc3ccc(Cl)cc3-n3cccc32)ccn1 [Compound 98]	5.03	<4.19	4.48	4.47	5.06	4.49	4.49
Cc1cccc(C2NCc3c(Cl)cccc3-n3cccc32)n1 (racemic) [Compound 12]	4.82	<4.49	<4.49	4.92	<4.49	4.59	<4.49
Cn1nc2ccc(C3=NCc4c(Cl)cc(Cl)cc4-n4cccc43)cc2n1 [Compound 109]	4.34	<4.19	4.37	5.70	<4.19	<4.19	<4.19
COc1cccc2cc(C3=NCc4ccc(Cl)cc4-n4cccc43)oc12 [Compound 142]	<4.19	<4.19	<4.19	5.64	<4.19	<4.19	<4.19
COc1cccc2cc(C3=NCc4cccc(Cl)c4-n4cccc43)oc12 [Compound 143]	5.20	<4.19	<4.19	6.11	<4.19	5.49	<4.19
Clc1cc2oc(C3=NCc4c(Cl)cccc4-n4cccc43)cc2cn1 [Compound 159]	<4.49	6.41	<4.49	6.46	<4.49	<4.49	<4.49
CCc1ccc(C2NCc3c(Cl)cccc3-n3cccc32)nc1.Cl (racemic) [Compound 13]	4.52	5.40	5.00	5.70	<4.19	<4.19	<4.19
Cc1ncc(C2=NCc3c(C)cccc3-n3cccc32)cn1 [Compound 99]	<4.19	5.10	<4.19	4.89	<4.19	<4.19	<4.19
COc1ccc2oc(C3=NCc4c(Cl)cc(Cl)cc4-n4cccc43)cc2c1 [Compound 148]	<4.19	5.82	4.19	5.04	<4.19	<4.19	<4.19
Fc1cc(F)c2c(c1)-n1cccc1C(c1ccc3occ(Cl)c3c1)=NC2 [Compound 154]	<4.19	<4.19	<4.19	<4.19	<4.19	<4.19	<4.19
Clc1cccc2c1CN=C(c1ccc3scc(Cl)c3c1)c1cccn1-2 [Compound 177]	5.73	<4.19	<4.19	<4.19	<4.19	<4.19	<4.19
CCc1nc(C2=NCc3c(Cl)cc(Cl)cc3-n3cccc32)cs1 [Compound 65]	5.06	4.72	5.48	5.19	<4.19	4.56	<4.19
COc1cccc2cc(C3=NCc4c(Cl)cc(Cl)cc4-n4cccc43)oc12 [Compound 145]	<4.19	4.81	<4.19	5.11	<4.19	<4.19	<4.19
Cc1ccc(Cl)c2c1-n1cccc1C(c1cnc(C(F)(F)F)nc1)NC2.Cl (racemic) [Compound 27]	<4.90	<4.90	<4.90	<4.90	<4.90	<4.90	<4.90
Clc1ccc(Cl)c2c1CN=C(c1ccc3ccoc3c1)c1cccn1-2 [Compound 151]	<4.19	<4.19	<4.19	4.95	<4.19	<4.19	<4.19
COc1cccc2cc(C3NCc4ccc(Cl)cc4-n4cccc43)oc12.Cl (racemic) [Compound 42]	4.89	4.19	4.49	5.06	<4.19	<4.19	<4.19

Reference: patent US9493468B2, “Antifungal 5,6-dihydro-4H-pyrrolo[1,2-a][1,4]benzo-diazepines and 6H-pyrrolo[1,2-a][1,4]benzodiazepines substituted with heterocyclic derivatives” (Janssen Pharmaceutica NV, priority 2011, dated 2016)
